Data taken from article PMC12457078, “Inhibition of soluble epoxide hydrolase in endotoxin induced pig lung injury” (Frontiers in Pharmacology, 2025).
Where “and” joins values, the source holds several entries; their conditions need not be identical. Equal entries are not always repeated.

Test system: endotoxin-induced lung injury
Assay: porcine model of LPS-induced acute lung injury: haemodynamics, ventilation/mechanics, blood gases, P/F, chemistry, temperature, survival
Type: in vivo, pig
Set-up: AF baseline / AF end / Ven. sat end: unit not given here
Procedure: The animals were bred for purpose at the Forslunda Agricultural School in Umeå, Sweden. The pigs were pairwise kept in 8 m^2 pens before start of experiments and were fed twice daily with a commercially available pig diet without antimicrobials, and with free access to water. Photoperiods were 12:12 h light:dark. Room temperature in their stall was 20 °C ± 1 °C.
After overnight fasting, but with free access to water and hay, animals were pre-medicated with ketamine (Ketaminol vet® 100 mg/mL; Intervet International B.V, Boxmeer, Netherlands), xylazine (Rompun® vet 20 mg/mL; Bayer Animal Health, Copenhagen, Denmark) and atropine (Atropin Mylan 0.5 mg/mL; Mylan AB, Stockholm, Sweden) by intramuscular injection before an auricular vein was cannulated. Anesthesia was induced with ketamine and midazolam (Midazolam Hameln 5 mg/mL, Hameln Pharmaceuticals, Hameln, Germany) and maintained with ketamine, midazolam, xylazine and fentanyl (Fentanyl 0.05 mg/mL, B. Braun Medical AB, Danderyd, Sweden). The animals were orotracheally intubated and ventilated with tidal volume 8–9 mL/kg, PEEP 8 cmH2O, and a respiratory rate set to achieve an end-tidal carbon dioxide of 5–5.5 kPa.
One animal served as a pharmacokinetic pilot, with arterial and venous catheters placed in a cut-down in the neck. The remaining 21 animals were used for the randomized study (Figure 1). After intubation and start of mechanical ventilation, a second auricular vein cannula was placed and infusion of either AEPU or placebo according to randomization was started. After 2 h of infusion of AEPU or placebo, an infusion of LPS was started. A bolus of 0.1 mg/kg was administered during 30 min after which the infusion rate was adjusted to 0.01 mg/kg/h. During the time between start of AEPU or placebo and LPS infusion, neck dissection was performed, exposing the v jugularis externa and carotid artery. A pulmonary artery introducer and an arterial cannula were placed in vein and artery respectively, and a pulmonary artery catheter introduced through the introducer and the tip placed in the correct position in the pulmonary artery placement guided by continuous invasive pressure monitoring or, when difficult, assisted by fluoroscopy. All surgical procedures were performed under sterile conditions.
AEPU was synthesized according to Kim et al. ([Kim et al., 2007]), delivered in 60 mg vials and dissolved in 30 mL pure ethanol as a co-solvent, of which either 20 mL was added to 980 mL of sodium chloride 9 mg/mL or 8 mL–392 mL sodium chloride, creating a solution of 0.04 mg/mL AEPU and 2% ethanol. The placebo infusion was prepared by adding either 20 mL of pure ethanol to 980 mL of sodium chloride 9 mg/mL or 8 mL of pure ethanol to 392 mL sodium chloride, creating a 2% ethanol solution. Each animal received an infusion of either 0.1 mg/kg/h AEPU or the corresponding volume of placebo solution.
A total of 200 mg of prefabricated lipopolysaccharides (LPS, Escherichia coli serotype 0,111:B4, Sigma-Aldrich (Product no L4130), St. Louis, MO, United States of America) was dissolved in 40 mL of sterile water, carefully mixed and filtered, creating a solution of 5 mg/mL. This preparation was stored frozen (−20 °C) in 1 mL partitions. For each animal, 2 mL of the thawed solution was mixed and diluted in 18 mL of sodium chloride, finally creating a 0.5 mg/mL LPS solution for infusion.
All animals were monitored with pulse oximetry, heart rate, ECG, systemic arterial blood pressure (ABP), pulmonary arterial pressure (PAP), central venous pressure (CVP) temperature, tidal volumes, respiratory rate and end tidal carbon dioxide. At baseline, and at 3 h, 6 h and at the end of the experiment, pulmonary capillary wedge pressure (PCWP) was measured together with arterial and venous blood gas analyses, as well as cardiac output calculations. […]

[1] = individual animals, 3 h, listed as sEH-i 950
[2] = individual animals, 6 h, listed as sEH-i 950
[3] = individual animals, end, listed as sEH-i 950
[4] = last available measurement, AEPU group

Q: `CCOCCOCCOCCCCCNC(=O)NC12CC3CC(CC(C3)C1)C2` [Compound 950] was tested. Which “PaO2 3 h” value [1] did it give?
A: 22.1 kPa and 20.1 kPa and 17 kPa and 22.7 kPa and 19.3 kPa and 16.7 kPa and 9 kPa and 8.1 kPa and 7.3 kPa and 14.7 kPa

Q: What about the “SBP 3 h” value [1] of the same compound?
A: 124 mmHg and 122 mmHg and 103 mmHg and 102 mmHg and 110 mmHg and 101 mmHg and 162 mmHg and 123 mmHg and 78 mmHg and 116 mmHg

Q: What about the “SPAP 3 h” value [1] of the same compound?
A: 82 mmHg and 46 mmHg and 45 mmHg and 53 mmHg and 66 mmHg and 58 mmHg

Q: And the “Ven. sat 3 h” value [1]?
A: 69 and 79 and 74 and 62 and 58 and 49 and 34

Q: What about the “CO 6 h” value [2] of the same compound?
A: 3.2 L/min and 3.3 L/min and 3.1 L/min and 1.7 L/min and 2.4 L/min

Q: And the “CVP 6 h” value [2]?
A: 14 mmHg and 16 mmHg and 22 mmHg and 15 mmHg and 26 mmHg and 25 mmHg

Q: What about the “HR 6 h” value [2] of the same compound?
A: 170 and 173 and 175 and 138 and 120 and 226 and 116 and 162

Q: What about the “MAP 6 h” value [2] of the same compound?
A: 82 mmHg and 60 mmHg and 94 mmHg and 91 mmHg and 66 mmHg and 55 mmHg

Q: What about the “MPAP 6 h” value [2] of the same compound?
A: 35 mmHg and 44 mmHg and 42 mmHg and 24 mmHg and 49 mmHg and 41 mmHg and 43 mmHg

Q: What about the “PCWP 6 h” value [2] of the same compound?
A: 19 mmHg and 17 mmHg and 18 mmHg and 21 mmHg

Q: And the “PaCO2 6 h” value [2]?
A: 5.1 kPa and 5.9 kPa and 6.2 kPa and 5.3 kPa and 5.5 kPa and 4.4 kPa and 6.3 kPa and 8 kPa and 9.4 kPa

Q: What about the “PaO2 6 h” value [2] of the same compound?
A: 19.6 kPa and 12.3 kPa and 11.8 kPa and 18.6 kPa and 18.5 kPa and 14.7 kPa and 8.7 kPa and 9.4 kPa and 6.8 kPa and 7.9 kPa

Q: And the “SBP 6 h” value [2]?
A: 104 mmHg and 106 mmHg and 119 mmHg and 88 mmHg and 110 mmHg and 100 mmHg and 95 mmHg

Q: What about the “SPAP 6 h” value [2] of the same compound?
A: 42 mmHg and 47 mmHg and 48 mmHg and 36 mmHg and 57 mmHg and 44 mmHg and 52 mmHg and 53 mmHg

Q: What about the “Ven. sat 6 h” value [2] of the same compound?
A: 57 and 59 and 45 and 73 and 68 and 44 and 46 and 7 and 10

Q: What about the “MPAP (vid max SPAP)” value (individual animals, at max SPAP, listed as sEH-i 950) of the same compound?
A: 60 mmHg and 52 mmHg and 62 mmHg and 57 mmHg and 84 mmHg and 66 mmHg and 47 mmHg

Q: What about the CO end [3] of the same compound?
A: 3.9 L/min and 2.8 L/min and 3.6 L/min and 5.2 L/min and 0 L/min and 1.4 L/min

Q: And the CVP end [3]?
A: 17 mmHg and 15 mmHg and 13 mmHg and 20 mmHg

Q: What about the HR end [3] of the same compound?
A: 163 and 147 and 150 and 130 and 165 and 160 (0) and 135

Q: What about the MAP end [3] of the same compound?
A: 55 mmHg and 56 mmHg and 105 mmHg and 64 mmHg and 67 mmHg and 42 mmHg and 43 mmHg

Q: What about the MPAP end [3] of the same compound?
A: 30 mmHg and 50 mmHg and 33 mmHg and 24 mmHg and 40 mmHg and 43 mmHg and 48 mmHg

Q: What about the PCWP end [3] of the same compound?
A: 17 mmHg and 22 mmHg and 16 mmHg and 15 mmHg and 25 mmHg

Q: And the PaCO2 end [3]?
A: 5.3 kPa and 6.1 kPa and 4.8 kPa and 4.4 kPa and 7.3 kPa and 6.4 kPa

Q: What about the PaO2 end [3] of the same compound?
A: 19.9 kPa and 13.4 kPa and 12 kPa and 19.5 kPa and 12.2 kPa and 4.4 kPa and 8.7 kPa

Q: And the SBP end [3]?
A: 102 mmHg and 103 mmHg and 116 mmHg and 97 mmHg and 92 mmHg and 66 mmHg and 70 mmHg

Q: What about the SPAP end [3] of the same compound?
A: 38 mmHg and 57 mmHg and 43 mmHg and 29 mmHg and 47 mmHg and 49 mmHg and 54 mmHg

Q: What about the Ven. sat end [3] of the same compound?
A: 69 and 54 and 58 and 56 and 70 and 19

Q: What about the SPAP max (individual animals, maximum, listed as sEH-i 950) of the same compound?
A: 73 mmHg and 71 mmHg and 91 mmHg and 70 mmHg and 72 mmHg and 84 mmHg and 80 mmHg and 75 mmHg

Q: And the Bilirubin [4]?
A: 11.1 (8.6–18.8) μmol/L

Q: And the CVP [4]?
A: 16 (15–17) mmHg

Q: And the Compliance [4]?
A: 7.9 (7.3–9.7) ml/cmH2O

Q: And the Creatinine [4]?
A: 133 (102–152) μmol/L

Q: What about the Hemoglobin [4] of the same compound?
A: 116 (107–128) g/L

Q: And the MAP [4]?
A: 66 (55–97) mmHg

Q: And the MPAP [4]?
A: 46 (35–50) mmHg

Q: What about the P/F [4] of the same compound?
A: 22 (11–42) kPa

Q: And the PCWP [4]?
A: 18 (16–21) mmHg

Q: And the PIP [4]?
A: 33 (29–37) cmH20

Q: What about the PVR [4] of the same compound?
A: 643 (390–1057) dynes*sec/cm^5

Q: What about the PaCO2 [4] of the same compound?
A: 5.8 (4.9–7.1) kPa

Q: What about the SVR [4] of the same compound?
A: 1314 (1089–2375) dynes*sec/cm^5

Q: What about the SvO2 [4] of the same compound?
A: 55 (25–66) %

Q: And the Temperature [4]?
A: 38.5 (38.0–40.1) °C

Q: And the pH [4]?
A: 7.16 (7.07–7.26)

Q: And the “Mortalitet: Tidpunkt” value (time of death or termination, individual animals, listed as sEH-i 950)?
A: 6 h and 9 h and 8 h
